In patent publication US20100317078A1, “METHODS TO IMPROVE ALCOHOL TOLERANCE OF MICROORGANISMS” (Cornell Research Foundation Inc, priority 2007, published 2010):
“And” between values parts separate entries of the source, which are not always exact repeats. Identical values can stand only once. Like-named read-outs stand apart in the source and are kept apart here.

What was measured:
[1] = test system: S. cerevisiae wild type haploid MVY#19; conditions: WT, 5% Ethanol
Protocol: (§1) The method for examining ethanol tolerance by profiling yeast growth was adapted from You et al. (You et al., “Ethanol Tolerance in the Yeast Saccharomyces cerevisiae is Dependent on Cellular Oleic Acid Content,” Applied Environ Microbiology 69:1499-1503 (2003), which is hereby incorporated by reference in its entirety). Inocula of wildtype and opi1 yeast strains were prepared as previously described (see Plating Assays) except a Marathon 21K/BR bench top centrifuge (Fisher Scientific, Inc., Hampton, N.H.) was used. The cell pellet was suspended in —I media and the OD was measured by pipetting […] of the cell suspension into a clean well of a 96 well plate and reading OD in a plate reader (Synergy HT Multidetection Microplate Reader, Bio-Tek Instruments, Inc., Winooski, Vt.).
(§2) Cells were inoculated into 125-mL polycarbonate Erlenmeyer flasks with 50-mL of +I or −I containing either 2% or 12% glucose and 0 or 5% ethanol, at a final OD of 0.05. Each media type was performed in triplicate for both yeast strains. Flasks were placed in an incubator-shaker at 30° C. and 250 rpm (Gyratory Waterbath Shaker, New Brunswick Scientific, Edison, N.J.). The OD of each culture was measured over a period of at least 36 hr or until the cell density had stabilized for a period of no less than 12 hr. Triplicate OD measurements were performed for each sample and measurements were averaged.
(§3) Specific growth rate, or the growth rate over time per unit of biomass, was calculated in order to provide a quantitative assessment of the impact of experimental conditions on growth rate. Specific growth rates were estimated for both yeast strains for all of the conditions mentioned using the following first order kinetic equation:
(§4) μ=specific growth rate, (hr^−1)
(§5) This equation was fit to the data presented in FIGS. 3 through 6 using the nonlinear parameter estimation tool in KaleidaGraph.

[2] = test system: S. cerevisiae mutant derivative MVY#2013 (opi1); conditions: for increase in μ value for opi1 over wild type: 5% ethanol; for Specific Growth Rates in 2% Glucose (μ) / Specific Growth Rates in 12% Glucose (μ): 5% Ethanol
Protocol: as §1, §2, §3, §4, §5

[3] = test system: S. cerevisiae wild type diploid MVY#2008; conditions: for Specific Death Rates in 2% Glucose (d): WT
Protocol: (§6) The method for examining ethanol tolerance using a plating technique was adapted from Chi et al. (Chi et al., “Role of Phosphatidylinositol (PI) in Ethanol Production and Ethanol Tolerance By a High Ethanol Producing Yeast,” J Industrial Microbiology Biotechnology 22:58-63 (1999), which is hereby incorporated by reference in its entirety). Inocula of wild type and opi1 yeast strains were prepared as previously described. Cells were centrifuged at 4,500 rpm for 5 min at 4° C. (Sorvall Legend R T, Kendro Laboratory Products, Asheville, N.C.), and the supernatant was removed. Cells were washed twice with −I media, centrifuged at 4,500 rpm for 5 min, and the resulting pellet was stored at 4° C.
(§7) The cell pellets were re-suspended in inositol-free media and the OD was measured. Cells were inoculated into a 500-mL polycarbonate Erlenmeyer flask containing 110-mL of synthetic media either containing (+I) or lacking inositol (−I) at a final OD of 0.1. The cell cultures were placed in an incubator-shaker at 30° C. and 250 rpm until the OD reached 0.5.
(§8) Two volumes of cell suspension containing 1×10^8 cells—previously determined by cell counting with a hemacytometer (Bright-Line Hemacytometer, Reichert Scientific Instruments, Buffalo, N.Y.)—were removed from the flasks and placed in separate sterile 50-mL centrifuge tubes. Cells were centrifuged at 4,500 rpm for 5 min at 4° C. and the supernatant was removed. Cells were washed twice with either −I or +I media as previously described, and the resulting supernatants were discarded. Ten mL of ethanol (10, 15 or 18% (v/v)) was added to one of the 50-mL centrifuge tubes containing a washed cell pellet and this represented the “shocked culture.” As a control, 10-mL of sterile water was added to the second 50-mL tube containing a washed cell pellet. Two 25-μl aliquots of the control culture were removed and plated on YPD plates, representing time zero of the experiment. Cell suspensions were transferred from 50-mL centrifuge tubes to 25-mL sterile glass tubes. The glass tubes were placed in an incubator-shaker at 30° C. and 250 rpm.
(§9) Samples of both the shocked and control cultures were taken every hour for 4 hr. Shocked cells were diluted in ethanol (10, 15, or 18%, consistent with the concentration of the shocked culture) at dilution factor of 1:1000. Control cells were diluted in sterile water at the same dilution factor. Duplicate 25-μl aliquots were plated on YPD plates for each sample of either shocked or control cell cultures over the 4 hr time course. All plates were placed in a 30° C. incubator. Colonies were counted on all plates after 48 and 72 hr. Duplicate plate counts were averaged. Ethanol tolerance of each strain, in terms of cell viability, in either +I or −I media over a range of ethanol concentrations, was expressed as a ratio of the number of colonies counted in the shocked culture at 72 hr to the number of colonies counted in the control culture at 72 hr. Cell viability in the control culture at time-zero of the experiment was assumed to be 100%.
(§10) Ethanol tolerance of each strain was calculated, in terms of cell viability (CV), using the number of colony forming units (CFUs) in the shocked and control cultures after 72 hr of incubation using the following equation:
(§11) Cell viability in the control culture at time-zero of the experiment was assumed to be 100%. All ethanol concentrations are volume-volume percentages (v/v), while all glucose concentrations are in weight-volume percentages (w/v).
(§12) To model the data presented in FIGS. 1 and 2 and to estimate specific death rates a simple first-order kinetic model was fitted to the data using the nonlinear parameter estimation tool in KaleidaGraph (Synergy Software, Reading, Pa.):
(§13) d=specific death rate, (hr^−1)

[4] = test system: S. cerevisiae mutant derivative MVY#2015 (opi1)
Protocol: as §6, §7, §8, §9, §10, §11, §12, §13

In the case of CCO [Ethanol, ethanol], the “Specific Growth Rates in 2% Glucose (μ)” value ([1]; I+ media) is reported as 0.111 ± 0.007 h⁻¹, the “Specific Growth Rates in 12% Glucose (μ)” value ([1]; I+ media) is reported as 0.109 ± 0.010 h⁻¹ and the “Specific Growth Rates in 2% Glucose (μ)” value ([1]; I− media) is reported as 0.065 ± 0.004 h⁻¹. For the same molecule, the “Specific Growth Rates in 12% Glucose (μ)” value ([1]; I− media) was 0.057 ± 0.007 h⁻¹, the “increase in μ value for opi1 over wild type” value (“increase in μ value for opi1” for short) ([2]; +I media, 2% glucose) was 5% and the “increase in μ value for opi1” value ([2]; +I media, 12% glucose) was 16%. For the same molecule, the “increase in μ value for opi1” value ([2]; −I media, 2% glucose) was 57%, the “increase in μ value for opi1” value ([2]; −I media, 12% glucose) was 33% and the “Specific Growth Rates in 2% Glucose (μ)” value ([2]; opi1, I+ media, 2% glucose) was 0.118 ± 0.012 h⁻¹. The “Specific Growth Rates in 12% Glucose (μ)” value ([2]; opi1, I+ media, 12% glucose) was 0.127 ± 0.007 h⁻¹, the “Specific Growth Rates in 2% Glucose (μ)” value ([2]; opi1, I− media, 2% glucose) was 0.102 ± 0.011 h⁻¹ and the “Specific Growth Rates in 12% Glucose (μ)” value ([2]; opi1, I− media, 12% glucose) was 0.076 ± 0.010 h⁻¹. The “d of wild type cells relative to opi1 cells” value ([3]; 15% ethanol after growth in +I media) was “over 3.5 times”, the “d of wild type cells relative to opi1 cells” value ([3]; 15% ethanol after growth in −I media) was “nearly four times” and the “Specific Death Rates in 2% Glucose (d)” value ([3]; grown in I+ media, shocked in 10% Ethanol) was 0.084 h⁻¹. The “Specific Death Rates in 2% Glucose (d)” value ([3]; grown in I+ media, shocked in 15% Ethanol) was 2.61 h⁻¹, the “Specific Death Rates in 2% Glucose (d)” value ([3]; grown in I+ media, shocked in 15% Ethanol, listed as ethanol) was 2.61 h⁻¹ and 3.14 h⁻¹ and the “Specific Death Rates in 2% Glucose (d)” value ([3]; grown in I− media, shocked in 10% Ethanol) was 0.049 h⁻¹. For the same molecule, the “Specific Death Rates in 2% Glucose (d)” value ([3]; grown in I− media, shocked in 15% Ethanol) was 3.14 h⁻¹, the “Specific Death Rates in 2% Glucose (d)” value ([3]; grown in I− media, shocked in 15% Ethanol, listed as ethanol) was 3.14 h⁻¹ and 2.61 h⁻¹ and the “specific death rate d” value ([3]; wild type, 10% ethanol, with or without inositol in growth media) was “less than 0.1 hr^−1”. The “d after growth in −I media higher than after growth in +I” value ([3]; wild type, 15% ethanol) was 20%, the “d of opi1 in 18% ethanol, lower than d of wild type in 15% ethanol” value ([4]; both grown in +I media) was 38% and the “specific death rate d” value ([4]; opi1, 10% ethanol, with or without inositol in growth media) was “less than 0.1 hr^−1”. The “increase of d after growth in −I media in comparison to +I media” value ([4]; opi1, 15% ethanol) was 11%, the “Specific Death Rates in 2% Glucose (d)” value ([4]; opi1, grown in I+ media, shocked in 10% Ethanol) was 0.036 h⁻¹ and the “Specific Death Rates in 2% Glucose (d)” value ([4]; opi1, grown in I+ media, shocked in 15% Ethanol) was 0.71 h⁻¹. For the same molecule, the “Specific Death Rates in 2% Glucose (d)” value ([4]; opi1, grown in I+ media, shocked in 18% Ethanol) was 1.61 h⁻¹, the “Specific Death Rates in 2% Glucose (d)” value ([4]; opi1, grown in I− media, shocked in 10% Ethanol) was 0.006 h⁻¹ and the “Specific Death Rates in 2% Glucose (d)” value ([4]; opi1, grown in I− media, shocked in 15% Ethanol) was 0.79 h⁻¹.
